Data published in ChEMBL document CHEMBL4831516, “Development of Membrane-Active Honokiol/Magnolol Amphiphiles as Potent Antibacterial Agents against Methicillin-Resistant Staphylococcus aureus (MRSA)” (J Med Chem, 2021).

Key:
Salmonella enterica [1] = experiment: Antibacterial activity against Salmonella enterica 349812 assessed as inhibition of visible growth incubated for 16 to 18 hrs by CLSI method; type: functional; settings: time 16-18 hrs, read-out: MIC100
Staphylococcus aureus [2] = experiment: Antibacterial activity against methicillin-resistant Staphylococcus aureus clinical isolate M-13 assessed as inhibition of visible growth incubated for 16 to 18 hrs by CLSI method; type: functional; settings: time 16-18 hrs, read-out: MIC100
Staphylococcus aureus [3] = experiment: Antibacterial activity against methicillin-resistant Staphylococcus aureus clinical isolate M-14 assessed as inhibition of visible growth incubated for 16 to 18 hrs by CLSI method; type: functional; settings: time 16-18 hrs, read-out: MIC100
Enterococcus faecalis = experiment: Antibacterial activity against Enterococcus faecalis ATCC29212 assessed as inhibition of visible growth incubated for 16 to 18 hrs by CLSI method; type: functional; settings: time 16-18 hrs, read-out: MIC100
[4] = system: Stenotrophomonas maltophilia; experiment: Antibacterial activity against Stenotrophomonas maltophilia assessed as inhibition of visible growth incubated for 16 to 18 hrs by CLSI method; type: functional; settings: time 16-18 hrs, read-out: MIC100
Salmonella enterica [5] = experiment: Antibacterial activity against Salmonella enterica 8389 assessed as inhibition of visible growth incubated for 16 to 18 hrs by CLSI method; type: functional; settings: time 16-18 hrs, read-out: MIC100
Micrococcus luteus = experiment: Antibacterial activity against Micrococcus luteus assessed as inhibition of visible growth incubated for 16 to 18 hrs by CLSI method; type: functional; settings: time 16-18 hrs, read-out: MIC100
Staphylococcus aureus [6] = experiment: Antibacterial activity against methicillin-resistant Staphylococcus aureus clinical isolate M-18 assessed as inhibition of visible growth incubated for 16 to 18 hrs by CLSI method; type: functional; settings: time 16-18 hrs, read-out: MIC100
Staphylococcus aureus [7] = experiment: Antibacterial activity against methicillin-resistant Staphylococcus aureus clinical isolate M-20 assessed as inhibition of visible growth incubated for 16 to 18 hrs by CLSI method; type: functional; settings: time 16-18 hrs, read-out: MIC100
Staphylococcus aureus [8] = experiment: Antibacterial activity against methicillin-resistant Staphylococcus aureus clinical isolate M-11 assessed as inhibition of visible growth incubated for 16 to 18 hrs by CLSI method; type: functional; settings: time 16-18 hrs, read-out: MIC100
Bacillus subtilis = experiment: Antibacterial activity against Bacillus subtilis assessed as inhibition of visible growth incubated for 16 to 18 hrs by CLSI method; type: functional; settings: time 16-18 hrs, read-out: MIC100
Staphylococcus aureus [9] = experiment: Antibacterial activity against methicillin-resistant Staphylococcus aureus clinical isolate M-19 assessed as inhibition of visible growth incubated for 16 to 18 hrs by CLSI method; type: functional; settings: time 16-18 hrs, read-out: MIC100
Staphylococcus aureus [10] = experiment: Antibacterial activity against Staphylococcus aureus ATCC29213 assessed as inhibition of visible growth incubated for 16 to 18 hrs by CLSI method; type: functional; settings: time 16-18 hrs, read-out: MIC100
[11] = Selectivity index, HC50 for hemolytic activity in sheep RBC to MIC for antibacterial activity against Staphylococcus aureus ATCC29213; type: toxicity; settings: sheep red blood cells (erythrocytes), read-out: Selectivity Index
Staphylococcus aureus [12] = experiment: Antibacterial activity against methicillin-resistant Staphylococcus aureus clinical isolate M-15 assessed as inhibition of visible growth incubated for 16 to 18 hrs by CLSI method; type: functional; settings: time 16-18 hrs, read-out: MIC100
Escherichia coli = experiment: Antibacterial activity against Escherichia coli ATCC25922 assessed as inhibition of visible growth incubated for 16 to 18 hrs by CLSI method; type: functional; settings: time 16-18 hrs, read-out: MIC100
Staphylococcus aureus [13] = experiment: Antibacterial activity against methicillin-resistant Staphylococcus aureus clinical isolate M-12 assessed as inhibition of visible growth incubated for 16 to 18 hrs by CLSI method; type: functional; settings: time 16-18 hrs, read-out: MIC100
[14] = Hemolytic activity in sheep RBC assessed as hemolysis incubated for 1 hr; type: ADME, cell-based, Ovis aries, Erythrocyte; settings: sheep red blood cells (erythrocytes)
Staphylococcus aureus [15] = experiment: Antibacterial activity against methicillin-resistant Staphylococcus aureus clinical isolate M-16 assessed as inhibition of visible growth incubated for 16 to 18 hrs by CLSI method; type: functional; settings: time 16-18 hrs, read-out: MIC100
Staphylococcus aureus [16] = experiment: Antibacterial activity against methicillin-resistant Staphylococcus aureus clinical isolate M-17 assessed as inhibition of visible growth incubated for 16 to 18 hrs by CLSI method; type: functional; settings: time 16-18 hrs, read-out: MIC100

SMILES	MIC (Salmonella enterica [1]) [µg/mL]	MIC (Staphylococcus aureus [2]) [µg/mL]	MIC (Staphylococcus aureus [3]) [µg/mL]	MIC (Enterococcus faecalis) [µg/mL]	MIC [4] [µg/mL]	MIC (Salmonella enterica [5]) [µg/mL]	MIC (Micrococcus luteus) [µg/mL]	MIC (Staphylococcus aureus [6]) [µg/mL]	MIC (Staphylococcus aureus [7]) [µg/mL]	MIC (Staphylococcus aureus [8]) [µg/mL]	MIC (Bacillus subtilis) [µg/mL]	MIC (Staphylococcus aureus [9]) [µg/mL]	MIC (Staphylococcus aureus [10]) [µg/mL]	selectivity ratio [11]	MIC (Staphylococcus aureus [12]) [µg/mL]	MIC (Escherichia coli) [µg/mL]	MIC (Staphylococcus aureus [13]) [µg/mL]	HC50 at 1 h [14] [µg/mL]	MIC (Staphylococcus aureus [15]) [µg/mL]	MIC (Staphylococcus aureus [16]) [µg/mL]
C=CCc1ccc(OCCC[N+](C)(C)CC(=O)NCCCCC)c(-c2ccc(OCCC[N+](C)(C)CC(=O)NCCCCC)c(CC=C)c2)c1.[Br-].[Br-]	8	4	4	4	16	8	4	2	4	4	8	2	2	546	2	16	2	1090	2	2
C=CCc1ccc(O)c(-c2cc(CC=C)ccc2OCCC[N+](C)(C)CC(=O)NCCCC)c1.[Br-]	32	4	4	4	32	32	1	4	4	8	1	4	2	298	4	8	4	596	4	4
C=CCc1ccc(OCCCC[N+](C)(C)CC(=O)N(CCCC)CCCC)c(-c2ccc(OCCCC[N+](C)(C)CC(=O)N(CCCC)CCCC)c(CC=C)c2)c1.[Br-].[Br-]	8	8	8	4	16	16	4	8	8	4	2	4	2	316	8	8	8	633	16	8
C=CCc1ccc(OCCC[N+](C)(C)CC(=O)N(CCCC)CCCC)c(-c2ccc(OCCC[N+](C)(C)CC(=O)N(CCCC)CCCC)c(CC=C)c2)c1.[Br-].[Br-]	16	8	8	2	4	8	1	8	8	8	2	8	4	270	8	4	8	1080	8	8
C=CCc1ccc(O)c(-c2cc(CC=C)ccc2OCCC[N+](C)(C)CC(=O)NCCCCCC)c1.[Br-]	16	4	2	2	16	16	0.5	2	2	4	0.5	2	2	372	2	8	2	743	2	2
C=CCc1ccc(O)c(-c2cc(CC=C)ccc2OCCC[N+](C)(C)CC(=O)NCCCCC)c1.[Br-]	32	4	2	4	16	16	1	2	2	8	1	2	2	339	2	8	2	678	2	2
C=CCc1ccc(O)c(-c2cc(CC=C)ccc2OCCCC[N+](C)(C)CC(=O)NCCCCCC)c1.[Br-]	32	8	8	4	32	64	2	4	4	8	1	8	2	349	8	16	8	698	4	4
C=CCc1ccc(OCCC[N+](C)(C)CC(=O)NCC)c(-c2ccc(OCCC[N+](C)(C)CC(=O)NCC)c(CC=C)c2)c1.[Br-].[Br-]	64	4	9	4	32	32	4	4	4	8	4	4	2	567	4	16	4	1130	2	4
C=CCc1ccc(OCCCC[N+](C)(C)CC(=O)NCCCCCC)c(-c2ccc(OCCCC[N+](C)(C)CC(=O)NCCCCCC)c(CC=C)c2)c1.[Br-].[Br-]	16	2	8	2	8	8	2	4	4	2	4	4	4	143	8	16	2	573	8	4
C=CCc1ccc(OCC[N+](C)(C)CC(=O)NCCCCCC)c(-c2ccc(OCC[N+](C)(C)CC(=O)NCCCCCC)c(CC=C)c2)c1.[Br-].[Br-]	32	8	8	4	32	32	8	8	4	8	4	8	8	117	8	32	8	934	16	4
C=CCc1ccc(OCCCC[N+](C)(C)CC(=O)NCCC)c(-c2ccc(OCCCC[N+](C)(C)CC(=O)NCCC)c(CC=C)c2)c1.[Br-].[Br-]	8	4	4	2	8	8	2	8	8	4	2	8	2	322	4	8	4	644	4	8
